From US20230000842A1, “METHODS OF TREATING CARTILAGE DISORDERS THROUGH INHIBITION OF CLK AND DYRK” (SAMUMED, LLC, priority 2019, published 2023)

How the values were obtained:
[1] = tested on: Wnt pathway activity (SW480 colon carcinoma cells stably expressing the Sp5-Luc reporter); assay: Wnt pathway activity screening assay (Sp5-Luc reporter gene assay); settings: Homo sapiens, SW480, Table 4; SW480 cells stably expressing Sp5-Luc reporter, 10-point dose-response from 10 μM, 36 to 48 hours
[2] = tested on: primary human mesenchymal stem cells (hMSCs); assay: Chondrogenesis screening using primary human mesenchymal stem cells; format: cell-based; settings: Homo sapiens, Mesenchymal stem cells, hMSC chondrogenesis; for Emax: maximum activity relative to TGF-β3 (10 ng/mL) positive control, read-out: Max. Activity as % TGF-β3 activity; for EC50: concentration required to induce 50% levels of chondrogenesis with TGF-β3 as positive control, read-out: Conc (nM) of 50% TGF-β3 activity
Outline: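 Derived values are EC50 for 50% chondrogenesis, maximal activity and the dose giving it. These come from nodule area in passage 3–6 primary hMSCs, expressed as fold change over the mean of 3 same-plate DMSO wells, 2–3 replicates per concentration. TGF-β3 served as positive control.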

CLK2 kinase = CLK2 kinase (Homo sapiens, UniProt P49760); assay: CLK2 kinase activity assay (Z-lyte FRET); format: biochemical; settings: Z-lyte Ser/Thr 6 peptide, 60 μM ATP, 1 h at room temperature;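 also: FRET read-out as coumarin to fluorescein emission ratio, unphosphorylated peptide as 0% and phosphorylated peptide as 100% controls, duplicate reactions, non-linear regression fit of dose-response curves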
Sequence of CLK2 kinase (P49760 whole entry): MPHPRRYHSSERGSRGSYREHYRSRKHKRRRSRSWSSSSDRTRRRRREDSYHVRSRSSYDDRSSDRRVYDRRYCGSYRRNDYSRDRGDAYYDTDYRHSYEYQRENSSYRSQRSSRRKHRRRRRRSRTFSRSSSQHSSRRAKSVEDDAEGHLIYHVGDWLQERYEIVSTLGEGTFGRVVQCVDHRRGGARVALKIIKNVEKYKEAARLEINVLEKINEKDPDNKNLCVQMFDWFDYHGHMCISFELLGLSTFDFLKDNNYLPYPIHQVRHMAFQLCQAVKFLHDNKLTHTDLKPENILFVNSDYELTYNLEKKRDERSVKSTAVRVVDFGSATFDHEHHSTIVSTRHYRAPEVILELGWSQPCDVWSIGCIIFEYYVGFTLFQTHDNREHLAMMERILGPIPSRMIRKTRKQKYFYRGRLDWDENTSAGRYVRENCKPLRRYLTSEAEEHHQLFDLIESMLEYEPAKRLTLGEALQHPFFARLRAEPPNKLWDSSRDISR
Description: This is a non-radioactive assay using fluorescence resonance energy transfer (FRET) between coumarin and fluorescein to detect kinase activity which is represented as a ratio of coumarin emission/fluorescein emission.
The mixture was allowed to incubate with the representative compounds for one hour at room temperature. All reactions were performed in duplicate. Unphosphorylated (“0% Control”) and phosphorylated (“100% control”) forms of Ser/Thr 6 served as control reactions. Additionally, an 11-point dose-response curve of Staurosporine (1 μM top) was run to serve as a positive compound control.
After incubation, Development Reagent A was diluted in Development Buffer then added to the reaction and allowed to further incubate for one hour at room temperature.
Dose-response curves were generated and inhibitory concentration (IC50) values were calculated using non-linear regression curve fit in the Dotmatics' Studies Software (Bishops Stortford, UK).

CLK3 kinase = CLK3 kinase (Homo sapiens, UniProt P49761); assay: CLK3 kinase activity assay (Z-lyte FRET); format: biochemical; settings: Z-lyte Ser/Thr 18 peptide, 156 μM ATP, 1 h at room temperature;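 also: kinase activity read as coumarin/fluorescein emission ratio by FRET, unphosphorylated peptide as 0% and phosphorylated peptide as 100% control, values from non-linear regression of dose-response curves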
Sequence of CLK3 kinase (P49761 whole entry): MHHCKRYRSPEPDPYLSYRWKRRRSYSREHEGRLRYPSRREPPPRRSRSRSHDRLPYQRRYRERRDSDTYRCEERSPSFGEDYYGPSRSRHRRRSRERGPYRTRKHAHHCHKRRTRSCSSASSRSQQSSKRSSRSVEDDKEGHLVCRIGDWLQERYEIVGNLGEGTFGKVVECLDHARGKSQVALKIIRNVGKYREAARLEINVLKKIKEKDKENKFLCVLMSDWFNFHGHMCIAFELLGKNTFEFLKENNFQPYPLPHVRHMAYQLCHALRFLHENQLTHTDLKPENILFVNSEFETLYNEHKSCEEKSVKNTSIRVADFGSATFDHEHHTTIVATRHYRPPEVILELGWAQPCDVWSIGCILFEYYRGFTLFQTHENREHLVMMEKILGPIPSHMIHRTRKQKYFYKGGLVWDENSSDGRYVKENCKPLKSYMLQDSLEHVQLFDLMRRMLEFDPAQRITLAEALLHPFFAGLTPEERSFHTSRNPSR

SMILES | EC50 [1] | Emax [2] | EC50 (CLK2 kinase) | EC50 (CLK3 kinase) | EC50 [2]
Fc1ccc(-c2cncc3[nH]c(-c4n[nH]c5ncc(-c6cncnc6)cc45)cc23)cc1 [compound 319] | 594 nM | 23.8% | 6 nM | 817 nM | –
Nc1cncc(-c2ccc3[nH]nc(-c4cc5c(-c6ccccc6F)ccnc5[nH]4)c3c2)c1 [compound 320] | 131 nM | 23.5% | 9 nM | 33 nM | –
Nc1cncc(-c2cnc3[nH]nc(-c4cc5c(-c6ccccc6F)nccc5[nH]4)c3c2)c1 [compound 321] | 197 nM | 86% | 7 nM | 67 nM | 30 nM
Nc1cncc(-c2cnc3[nH]nc(-c4cc5c(-c6ccccc6F)ccnc5[nH]4)c3c2)c1 [compound 322] | 745 nM | 27.6% | 6 nM | 66 nM | –
Nc1cncc(-c2cc3c(-c4cc5c(-c6ccccc6F)nccc5[nH]4)n[nH]c3cn2)c1 [compound 323] | 224 nM | 117% | 2 nM | 59 nM | 10 nM
Nc1cncc(-c2cc3c(-c4cc5c(-c6ccccc6F)cncc5[nH]4)n[nH]c3cn2)c1 [compound 324] | 1630 nM | 15.5% | 6 nM | 205 nM | –
CC(C)CC(=O)Nc1cncc(-c2ccc3[nH]nc(-c4cc5c(-c6ccccc6F)nccc5[nH]4)c3n2)c1 [compound 326] | 605 nM | 36.3% | 10 nM | 144 nM | –
CC(C)(C)CC(=O)Nc1cncc(-c2cc3c(-c4cc5c(-c6ccccc6F)nccc5[nH]4)n[nH]c3cn2)c1 [compound 327] | 1030 nM | 54.3% | 10 nM | 414 nM | 30 nM
O=C(Nc1cncc(-c2cnc3[nH]nc(-c4cc5c(-c6ccccc6F)nccc5[nH]4)c3c2)c1)C1CC1 [compound 328] | 321 nM | 78.1% | 6 nM | 47 nM | 30 nM
O=C(Nc1cncc(-c2cnc3[nH]nc(-c4cc5c(-c6ccccc6F)cncc5[nH]4)c3c2)c1)C1CC1 [compound 329] | 390 nM | 52.1% | 8 nM | 42 nM | –
O=C(Nc1cncc(-c2ccc3[nH]nc(-c4cc5c(-c6ccccc6F)nccc5[nH]4)c3n2)c1)C1CC1 [compound 330] | 642 nM | 24.8% | 12 nM | 109 nM | –
O=C(Nc1cncc(-c2ccc3[nH]nc(-c4cc5c(-c6ccccc6F)nccc5[nH]4)c3c2)c1)C1CCCC1 [compound 331] | 418 nM | 70.8% | 15 nM | 158 nM | –
CC(C)Nc1cncc(-c2cnc3[nH]nc(-c4cc5c(-c6ccccc6F)nccc5[nH]4)c3c2)c1 [compound 332] | 435 nM | 75.8% | 6 nM | 196 nM | 10 nM
CCNCc1cncc(-c2cnc3[nH]nc(-c4cc5c(-c6ccccc6F)cncc5[nH]4)c3c2)c1 [compound 334] | 2300 nM | 37.3% | 2 nM | 89 nM | –
CCNCc1cncc(-c2cc3c(-c4cc5c(-c6ccccc6F)ccnc5[nH]4)n[nH]c3cn2)c1 [compound 335] | > 10000 nM | 270% | 19 nM | 2310 nM | 30 nM
CN(C)Cc1cncc(-c2cnc3[nH]nc(-c4cc5c(-c6ccccc6F)cncc5[nH]4)c3c2)c1 [compound 336] | 2490 nM | 60.9% | 3 nM | 107 nM | –
CN(C)Cc1cncc(-c2ccc3[nH]nc(-c4cc5c(-c6ccccc6F)cncc5[nH]4)c3n2)c1 [compound 337] | 1370 nM | 50.6% | 2 nM | 109 nM | 30 nM
Fc1ccccc1-c1nccc2[nH]c(-c3n[nH]c4cnc(-c5cncc(CN6CCCC6)c5)cc34)cc12 [compound 338] | 1980 nM | 69.4% | 5 nM | 222 nM | 10 nM
Fc1ccccc1-c1cncc2[nH]c(-c3n[nH]c4ncc(-c5cn[nH]c5)cc34)cc12 [compound 339] | 375 nM | 51.1% | 7 nM | 99 nM | –
Fc1ccccc1-c1nccc2[nH]c(-c3n[nH]c4cnc(-c5cn[nH]c5)cc34)cc12 [compound 340] | 30.5 nM | 89.2% | 10 nM | 785 nM | 10 nM

SMILES | EC50 [1] | Emax [2] | EC50 (CLK2 kinase) | EC50 (CLK3 kinase) | EC50 [2]
c1cncc(-c2ccc3[nH]nc(-c4cc5c(-c6cccnc6)ccnc5[nH]4)c3c2)c1 [compound 342] | > 10000 nM | 16.7% | 4 nM | 90 nM | –
c1cncc(-c2cc3c(-c4cc5c(-c6cccnc6)cncc5[nH]4)n[nH]c3cn2)c1 [compound 343] | 1340 nM | 76.4% | 3 nM | 468 nM | 100 nM
c1cncc(-c2ccc3[nH]nc(-c4cc5c(-c6cccnc6)ccnc5[nH]4)c3n2)c1 [compound 344] | > 10000 nM | 59.2% | 3 nM | 9840 nM | 100 nM
Cc1ccncc1-c1cnc2[nH]nc(-c3cc4c(-c5cccnc5)cncc4[nH]3)c2c1 [compound 345] | 2250 nM | 17.4% | 3 nM | 107 nM | –
Cc1ccncc1-c1ccc2[nH]nc(-c3cc4c(-c5cccnc5)cncc4[nH]3)c2n1 [compound 346] | > 10000 nM | 149% | 4 nM | 133 nM | 10 nM
CCC(=O)Nc1cncc(-c2cnc3[nH]nc(-c4cc5c(-c6cccnc6)cccc5[nH]4)c3c2)c1 [compound 348] | 180 nM | 671% | 3 nM | 538 nM | 10 nM
CC(C)C(=O)Nc1cncc(-c2ccc3[nH]nc(-c4cc5c(-c6cccnc6)cncc5[nH]4)c3c2)c1 [compound 349] | 260 nM | 34.5% | 2 nM | 37 nM | –
CC(C)C(=O)Nc1cncc(-c2cc3c(-c4cc5c(-c6cccnc6)cccc5[nH]4)n[nH]c3cn2)c1 [compound 350] | 275 nM | 201% | 11 nM | 1900 nM | 10 nM
CCCCC(=O)Nc1cncc(-c2cc3c(-c4cc5c(-c6cccnc6)ccnc5[nH]4)n[nH]c3cn2)c1 [compound 351] | > 10000 nM | 52.8% | 4 nM | 9840 nM | 10 nM
CC(C)CC(=O)Nc1cncc(-c2cnc3[nH]nc(-c4cc5c(-c6cccnc6)ccnc5[nH]4)c3c2)c1 [compound 352] | > 10000 nM | 43.5% | 3 nM | 9840 nM | –
CC(C)(C)CC(=O)Nc1cncc(-c2cnc3[nH]nc(-c4cc5c(-c6cccnc6)cncc5[nH]4)c3c2)c1 [compound 353] | > 10000 nM | 37.3% | 3 nM | 85 nM | –
O=C(Nc1cncc(-c2cc3c(-c4cc5c(-c6cccnc6)cccc5[nH]4)n[nH]c3cn2)c1)C1CC1 [compound 354] | 330 nM | 308% | 12 nM | 537 nM | 100 nM
O=C(Nc1cncc(-c2cnc3[nH]nc(-c4cc5c(-c6cccnc6)cccc5[nH]4)c3c2)c1)C1CCC1 [compound 355] | 202 nM | 41.3% | 8 nM | 151 nM | –
O=C(Nc1cncc(-c2ccc3[nH]nc(-c4cc5c(-c6cccnc6)cncc5[nH]4)c3c2)c1)C1CCCC1 [compound 356] | 1350 nM | 45.5% | 6 nM | 78 nM | –
O=C(Nc1cncc(-c2ccc3[nH]nc(-c4cc5c(-c6cccnc6)nccc5[nH]4)c3c2)c1)c1ccccc1 [compound 357] | 421 nM | 19.4% | 3 nM | 43 nM | –
O=C(Nc1cncc(-c2ccc3[nH]nc(-c4cc5c(-c6cccnc6)cncc5[nH]4)c3c2)c1)c1ccccc1 [compound 358] | > 10000 nM | 68.5% | 7 nM | 71 nM | –
CC(C)Nc1cncc(-c2ccc3[nH]nc(-c4cc5c(-c6cccnc6)cccc5[nH]4)c3c2)c1 [compound 359] | 100 nM | 226% | 6 nM | 962 nM | 10 nM
CC(C)Nc1cncc(-c2ccc3[nH]nc(-c4cc5c(-c6cccnc6)cncc5[nH]4)c3c2)c1 [compound 360] | 670 nM | 41.9% | 4 nM | 330 nM | –
CC(C)Nc1cncc(-c2ccc3[nH]nc(-c4cc5c(-c6cccnc6)ccnc5[nH]4)c3c2)c1 [compound 361] | > 10000 nM | 45.5% | 5 nM | 164 nM | –
CC(C)Nc1cncc(-c2cnc3[nH]nc(-c4cc5c(-c6cccnc6)ccnc5[nH]4)c3c2)c1 [compound 362] | > 10000 nM | 135% | 4 nM | 292 nM | 10 nM
